Experimental data from patent publication US20050107430A1, “Antimicrobial and antiviral compounds” (priority 2003, published 2005).
Values after ≈ are worked out from the molar mass of the structure shown. Values joined by “and” are separate entries in the source; they are usually repeats but may differ in a detail not shown here. Equal values may be shown once. “Also recorded” adds a separate entry of the source. Marks after values point to notes of the source that are not given here.

What was measured:
various microorganisms = test: Antimicrobial activity tests, various microorganisms; details: for growth in wells (activity): Example 1 microbes
P. aeruginosa = test: NCCLS MIC/MBC microdilution, P. aeruginosa; parameters: MIC: key to the marks not given beside the values; details: for MIC, P. aeruginosa: Table 3, P. aeroginosa is L13 from Table 2
BDF1′ mice = details: 30 mg/kg ip
S. aureus = test: NCCLS MIC/MBC microdilution, S. aureus patient isolates; type: cell-based, Staphylococcus aureus; details: for MBC: read at 48 hr
Excerpt: (§1) [BBL Mueller Hinton Broth].

[1] = test system: VRE (Vancomycin resistant Enterococci); test: NCCLS MIC/MBC microdilution, VRE; details: for MIC, VRE enterococcus (E. faecalis): 24 h and 48 h same results; for MIC: plate D4, VRE patient isolate
Protocol: (§2) Standard NCCLS (e.g., National Committee for Clinical Laboratory Standards) methods for determining MIC (e.g., minimum inhibitory concentration) and MBC (e.g., minimum bactericidal concentration) were used. 96 well micro-well plates were placed in a humid chamber and frozen at −70° C. [BBL Mueller Hinton Broth]. Drugs (e.g., antimicrobial compounds of the present invention) were added to a series of wells through 2 fold serial dilutions. 100 μl of a 2×10^−3 M solution of the respective Tx compounds was added to the first well in a series. 100 μl of the inoculum (e.g., microorganism) was added to the well. […] For example, the concentration in well 8 would be less than the concentration of the same drug in well 7. Inoculum (e.g., microorganism) that was added to the wells was prepared from 24 hour growth of an isolate on 5% sheep blood/Columbia agar plates. 5 to 10 representative colonies were then picked from the plates and added to saline and adjusted to 0.5 McFarland turbidity. Next the sample was diluted 1:100 in saline, such that 100 μl of the diluted sample contained approximately 1×10^5 microbes. 100 μl of the diluted sample was added to each well in a series of drug concentrations. Once the cells were added to the wells, the well plates were incubated at 35° C. without CO2 for 48 hrs and at this time the minimum bactericidal concentration was determined.
(§3) The MIC of Tx-118, Tx-147, and Tx-197 for certain Staphylococcus aureus (MRSA), Pseudomonas aeruginosa, Stenotrophomonas maltophilia, and VRE Enterococcus faecalis was determined using standard NCCLS methods. The first well in each series of decreasing drug concentrations contained 1×10^−4 M of a drug. The drug was diluted by serial two fold dilutions through all 12 wells in a series. There was a final DMSO concentration of 2% in the first well and 1% in the second well, etc. Tests with Tx-118 and Tx-197 were performed in triplicate, and tests with Tx-147 were performed in duplicate.

E. coli ATCC 25922 = test: NCCLS MIC/MBC microdilution, E. coli; type: cell-based; details: plate EC
Excerpt: as §1

Enterococcus faecium = test: NCCLS MIC/MBC microdilution, Enterococcus (vancomycin sensitive); type: cell-based; details: for MBC: read at 48 hr
Excerpt: as §1

human fibroblasts = test: Toxicity study with human fibroblasts; type: cell-based
[2] = test system: MRSA (oxacillin/methicillin resistant S. aureus); test: NCCLS MIC/MBC microdilution, MRSA; details: for MIC, MRSA (methicillin resistant): Table 3, 24 h and 48 h same results
Protocol: as §2, §3

[3] = test system: Stenotrophomonas maltophilia; test: NCCLS MIC/MBC microdilution, S. maltophilia; details: for MIC, Stenotrophomonas maltophilia: 24 h and 48 h same results
Protocol: as §2, §3

[4] = test system: chloroquin (CQ) resistant strain of Plasmodium falciparum (Pf); test: In vitro efficacy against chloroquin resistant Plasmodium falciparum; type: cell-based
Protocol: Tx-5 and Tx-84 were tested for in vitro efficacy against a chloroquin (CQ) resistant strain of Plasmodium falciparum (Pf). The tests were performed in triplicate at a wide variety of concentrations and evaluated for effect compared with CQ.

Mycobacterium fortutium = test: MIC, Mycobacterium fortutium; type: cell-based; details: for MIC, Mycobacterium fortutium: Table 3
[5] = test system: Mycobacterium tuberculosis; details: Table 3
[6] = test system: Vancomycin resistant S. aureus ATCC700699 and 700788 (VRSA); test: NCCLS MIC/MBC microdilution, vancomycin resistant S. aureus; type: cell-based, Staphylococcus aureus; details: for MBC: read at 48 hr
Excerpt: as §1

M. avium intracellularie = test: MIC, M. avium intracellularie; type: cell-based, Mycobacterium avium intracellulare; details: Table 3
[7] = plate 37, P. aeruginosa sensitive isolate
[8] = plate ATCC, P. aeruginosa ATCC 27853
[9] = plate L13, P. aeruginosaR (multi-resistant)
[10] = plate S332, S aureus patient isolate
[11] = plate S520, S aureus patient isolate penicillin resistant
[12] = plate E348, Enterococcus faecium patient isolate
[13] = plate E502, Enterococcus faecium ATCC 502806
[14] = plate E523, Enterococcus facium patient isolate
[15] = plate K12, MRSA patient isolate
[16] = plate C3, S. maltophilia patient isolate
[17] = plate I10, S. maltophilia patient isolate
[18] = plate J11, S. maltophilia patient isolate
[19] = Example 2, first well 1×10^−4 M
[20] = Table 3, 24 h and 48 h same results
[21] = plate 699, VancoR S. aureus ATCC700699
[22] = plate 788, VancoR S. aureus ATCC 700788

## O=C(CCC(=O)N1CCCCC1)Nc1cc2c3ccccc3c(Br)cc2c2ccccc12 [Tx-11, N-(12′-bromo, 6-chrysenyl)-4-(1′-piperidinyl)-butane-1,4-dicarboxiamide]
Various microorganisms
  growth in wells (activity): +3 growth (e.g., no activity)

## O=C(CCC(=O)N1CCCCC1)Nc1ccc2c(c1)c(Br)cc1c3ccccc3ccc21 [Tx-12, N-(12′-bromo, 2′-chrysenyl)-4-(1′-piperidinyl)-butane-1,4-dicarboxiamide]
Various microorganisms
  growth in wells (activity): +3 growth (e.g., no activity)

## CN1CCN(C(=O)CCC(=O)Nc2cc3c(c4ccccc24)-c2ccc4ccccc4c2C3)CC1 [Tx-37, N-[11′-(13′H-Dibenzo[a,g]-fluorenyl)]-4-(4′N methyl-piperazinyl)-butane-1,4-dicarboxiamide]
P. aeruginosa
  MIC, P. aeruginosa: No activity
P. aeruginosa; [7]
  MIC: +++
P. aeruginosa; [8]
  MIC: +++
P. aeruginosa; [9]
  MIC: +++
BDF1′ mice
  animal studies (ip), mortality: 30 mg/kg (no mortality)
S. aureus; [10]
  MIC: +++
S. aureus; [11]
  MIC: +++
[1]; Table 3
  MIC, VRE enterococcus (E. faecalis): 58 µg/mL (≈ 125 µM)
[1]
  MIC: 58 µg/mL (≈ 125 µM)
E. coli ATCC 25922
  MIC: +++
Enterococcus faecium; [12]
  MIC: +++
Enterococcus faecium; [13]
  MIC: +++
Enterococcus faecium; [14]
  MIC: +++
Human fibroblasts
  Toxicity/human fibroblasts (IC50): 5 µg/mL
[2]
  MIC, MRSA (methicillin resistant): 1.8 to 7 µg/mL
[2]; plate A1, MRSA patient isolate
  MIC: 7.2 µg/mL (≈ 15.5 µM)
[2]; plate B2, MRSA patient isolate
  MIC: 3.6 µg/mL (≈ 7.77 µM)
[2]; plate E5, MRSA patient isolate
  MIC: 3.6 µg/mL (≈ 7.77 µM)
[2]; plate F6, MRSA patient isolate
  MIC: 1.8 µg/mL (≈ 3.88 µM)
[2]; plate G7, MRSA patient isolate
  MIC: 3.6 µg/mL (≈ 7.77 µM)
[2]; plate H9, MRSA patient isolate
  MIC: 7.2 µg/mL (≈ 15.5 µM)
[2]; [15]
  MIC: 7.2 µg/mL (≈ 15.5 µM)
[3]; Table 3
  MIC, Stenotrophomonas maltophilia: No activity
[3]; [16]
  MIC: +++
[3]; [17]
  MIC: +++
[3]; [18]
  MIC: +++

## O=C(CCC(=O)N1CCCCC1)Nc1cc2c(c3ccccc13)-c1ccc3ccccc3c1C2 [Tx-38]
P. aeruginosa
  MIC, P. aeruginosa: No activity
P. aeruginosa; [7]
  MIC: +++
P. aeruginosa; [8]
  MIC: +++
P. aeruginosa; [9]
  MIC: +++
BDF1′ mice
  animal studies (ip), mortality: 30 mg/kg (no mort)
S. aureus; [10]
  MIC: +++
S. aureus; [11]
  MIC: +++
[1]; Table 3
  MIC, VRE enterococcus (E. faecalis): No activity
[1]
  MIC: +++
E. coli ATCC 25922
  MIC: +++
Enterococcus faecium; [12]
  MIC: +++
Enterococcus faecium; [13]
  MIC: +++
Enterococcus faecium; [14]
  MIC: +++
Human fibroblasts
  Toxicity/human fibroblasts (IC50): 12 ug/ml human fibroblasts
[2]
  MIC, MRSA (methicillin resistant): No activity
[2]; plate A1, MRSA patient isolate
  MIC: +++^a
[2]; plate B2, MRSA patient isolate
  MIC: +++
[2]; plate E5, MRSA patient isolate
  MIC: +++
[2]; plate F6, MRSA patient isolate
  MIC: +++
[2]; plate G7, MRSA patient isolate
  MIC: +++
[2]; plate H9, MRSA patient isolate
  MIC: +++
[2]; [15]
  MIC: +++
[3]; Table 3
  MIC, Stenotrophomonas maltophilia: No activity
[3]; [16]
  MIC: +++
[3]; [17]
  MIC: +++
[3]; [18]
  MIC: +++

## c1ccc2c(c1)c(NCCCCN1CCCCC1)cc1c3ccccc3c(NCCCCN3CCCCC3)cc21 [Tx-84]
P. aeruginosa
  MIC, P. aeruginosa: No activity
[4]; CQ resistant P. falciparum, in vitro, triplicate
  IC50: 91 nM
[4]; in words
  inhibitory effect against Pf: significant inhibitory effect; also recorded: greater than that of CQ
[1]; Table 3
  MIC, VRE enterococcus (E. faecalis): 4 to 33 µg/mL
[2]
  MIC, MRSA (methicillin resistant): 16 µg/mL (≈ 29.8 µM)

## CC(=O)c1cc2c3ccccc3ccc2c2ccc(NC(=O)CCC(=O)N3CCN(C)CC3)cc12 [Tx-118, N-(12′-acetyl, 2′-chrysenyl)-4-(4′N methyl-piperazinyl)-butane-1,4-dicarboxiamide]
P. aeruginosa
  MIC, P. aeruginosa: No activity
[1]; Table 3
  MIC, VRE enterococcus (E. faecalis): No activity
[2]
  MIC, MRSA (methicillin resistant): No activity
[3]; Table 3
  MIC, Stenotrophomonas maltophilia: No activity
Mycobacterium fortutium
  MIC, Mycobacterium fortutium: No activity

## CN1CCN(CCCCNc2cc3c4ccccc4c(NCCCCN4CCN(C)CC4)cc3c3ccccc23)CC1.Cl [Tx-147]
P. aeruginosa
  MIC, P. aeruginosa: No activity
P. aeruginosa; [7]
  MIC: +++
P. aeruginosa; [8]
  MIC: +++
P. aeruginosa; [9]
  MIC: +++
BDF1′ mice
  animal studies (ip), mortality: 30 mg/kg (10-12% mort)
S. aureus; [10]
  MIC: 12/12 ug/ml
  MBC: 12/12 ug/ml
S. aureus; [11]
  MIC: 12/12 ug/ml
S. aureus; plate S520, S aureus patient isolate
  MBC: 12/12 ug/ml
[1]; [19]
  MIC for VRE: 0.0019 µg/mL
[1]; Table 3
  MIC, VRE enterococcus (E. faecalis): 12 µg/mL
[1]; Table 3, vancomycin, Penicillin & aminoglycoside resistant
  MIC, VRE enterococcus (vancomycin, Penicillin & aminoglycoside rest.): 19 µg/mL
[1]; in words, Example 1
  bactericidal activity for VRE: some bactericidal activity
[1]
  MIC: 12 µg/mL
[5]
  MIC, Mycobacterium tuberculosis: 3 µg/mL
E. coli ATCC 25922
  MIC: +++
Enterococcus faecium; [12]
  MIC: 3 µg/mL
  MBC: 6 µg/mL
Enterococcus faecium; [13]
  MIC: 6 µg/mL
  MBC: 12 µg/mL
Enterococcus faecium; [14]
  MIC: 6 µg/mL
  MBC: 12 µg/mL
[6]; [20]
  MIC, VRSA (ATCC 700699): 6 µg/mL
  MIC, VRSA (ATCC 700788): 24 µg/mL
[6]; [21]
  MIC: 6 µg/mL
  MBC: 23 µg/mL
[6]; [22]
  MIC: 24 µg/mL
  MBC: 49 µg/mL
[2]; Example 2, first well 1×10^−4 M, two fold dilutions
  MIC for Staphylococcus aureus (MRSA): 0.0039 µg/mL
[2]; Example 2, wells 1 and 2, hydrochloride
  concentration that was bactericidal, Staphylococcus aureus (MRSA): 0.0078 µg/mL and 0.0039 µg/mL
[2]
  MIC, MRSA (methicillin resistant): 24 to 49 µg/mL
[2]; in words, Example 1
  bactericidal activity against Staphylococcus aureus (MRSA): bactericidal activity
[2]; plate A1, MRSA patient isolate
  MIC: 24 µg/mL
[2]; plate B2, MRSA patient isolate
  MIC: 48 µg/mL
[2]; plate E5, MRSA patient isolate
  MIC: 24 µg/mL
[2]; plate F6, MRSA patient isolate
  MIC: 24 µg/mL
[2]; plate G7, MRSA patient isolate
  MIC: 24 µg/mL
[2]; plate H9, MRSA patient isolate
  MIC: 48 µg/mL
[2]; [15]
  MIC: 48 µg/mL
M. avium intracellularie
  MIC, M. avium intracellularie: 12 to 24 µg/mL
[3]; [19]
  MIC for Stenotrophomonas maltophilia: 0.0078 µg/mL
[3]; Table 3
  MIC, Stenotrophomonas maltophilia: 98 to 785 µg/mL
[3]; Table 3, strain resist. various drugs
  MIC, Stenotrophomonas maltophilia (resist. various drugs): 78 µg/mL
[3]; [16]
  MIC: 96 µg/mL
[3]; [17]
  MIC: 784 µg/mL
[3]; [18]
  MIC: 784 µg/mL
Mycobacterium fortutium; Example 2
  MIC for Mycobacterium fortutium: 0.0039 µg/mL
Mycobacterium fortutium
  MIC, Mycobacterium fortutium: 39 µg/mL

## Cl.c1ccc2c(c1)c(NCCCCN1CCCCC1)cc1c3ccccc3c(NCCCCN3CCCCC3)cc21 [Tx-225]
Various microorganisms; in words
  antimicrobial activity: activity similar to Tx-84
